“And” between values parts separate entries of the source, which are not always exact repeats. Equal values may be shown once. Read-outs that look alike come from different tables or passages of the source.
Columns and labels:
Corn [1] = tested on: Corn
Corn [2] = assay: Greenhouse test Procedure VI: biocide and antidote in furrow, herbicide PPI in cover layer (Examples 43-47, 59-61; Tables 42-46, 58-60); type: in vivo; details: for safening: COUNTER 15G/PURSUIT interaction, Example 47
Text: This procedure describes interaction among herbicide, biocide and antidote when the herbicide is incorporated in a soil cover layer and the biocide and the antidote are applied in a soil furrow containing crop seed before emergence of the crop. The soil and seeding depth were described in Procedure IV. A first container was designated as an untreated control, a second container was designated as a herbicide control, a third container was designated as a herbicide + biocide control and a fourth container as a herbicide + biocide + antidote test container. The biocide and antidote were formulated as granules. The biocide was applied to the soil furrows of the third and fourth containers at an application rate of 1.1 mg of active compound per cm of row. The antidote was applied to the soil furrow of the fourth container at an application rate of 0.37 mg of active compound per cm of row. A measured amount of the herbicide dispersed or dissolved in acetone was applied to a measured quantity of soil. The quantity of soil treated with the herbicide was thoroughly mixed to incorporate the herbicide. Samples of this soil were used to cover the seed beds of the second, third and fourth containers. For each test series, the seed bed of the first container was likewise covered by a soil layer not treated with herbicide and without biocide or antidote in the soil furrow.
The containers were then placed on a bench in a greenhouse. Watering was by subirrigation plus overhead irrigation after the plants emerged. All treatments were run in duplicate. Plant response was observed according to Procedure IV. Variations in this procedure will be noted in the examples.
In continuing tests to evaluate the variations of this invention, a series of tests were conducted to determine the efficacy of the above safeners in Examples 39-42 to alleviate corn injury induced by the interaction of various additional commercial sulfonylurea herbicides with COUNTER 15G insecticide. In this example, the tests were conducted according to Procedure VI above. In modifications of that procedure, herbicides were applied to soil samples as acetone/water suspensions, incorporated by shaking in a closed container, with subsamples used to cover furrow-treated 10.2 cm pots. Pots were subirrigated followed by overhead misting on days 6-10.
This example was designed to test the safening effect of those above safeners used in this test series to relieve corn injury by negative synergism induced by interaction of COUNTER 15G and three imidazolinone herbicides, i.e., imazaquin and imazapyr (used in the POE tests in Example 41) and AC 263222 (a.i. in CADRE® herbicide). As differing from the tests in Example 41, this test was a PPI test according to Procedure VI described above. Observation of test results (Table 43) were taken thirteen 913) days after in-furrow PPI preparation.
This example describes PPI tests to evaluate said test safeners in this series with analogs of the sulfonamide herbicides tested under POE herbicide application procedures described in Example 42. In these tests, conducted according to Procedure VI described above, Herbicide Nos. 20, 22 and 24 were applied PPI with the insecticide and antidote. Observations of tests results were made thirteen days after PPI initiation.
An additional three (3) sulfonamide herbicide analogs were tested simultaneously and under the same conditions described in Example 45.
Another test of this invention involved the safening effects of the safeners in this series against negative synergy inducted by the interaction of COUNTER 15G and a sulfonylurea herbicide (OUST®), Herbicide No. 13, and PURSUIT, an imidazolinone herbicide, No. 6. Test conditions were the same as those in Examples 43-46. Other procedures for applying herbicidal formulations are as described in Example 42. […]

Corn [3] = details: for antidote activity: COUNTER with BEACON, PURSUIT (POE) or XRD-498 (PPI), Tables 29-37; for activity in reducing corn injury: primisulfuron POE + biocides PPI, Tables 8-10
[4] = malathion + Herbicides 1, 21, 18, Example 54
[5] = MON-12000 + OP insecticides, Examples 20-23
[6] = XRD-498 + OP insecticides, Examples 24-27
[7] = Antidote + Biocide No. 1 in furrow, Herbicide No. 6 0.14 Kg/Ha PPI
[8] = Antidote + Biocide No. 1 in furrow, Herbicide No. 11 0.0044 Kg/Ha PPI
[9] = Antidote + Biocide No. 1 in furrow, Herbicide No. 12 0.0044 Kg/Ha PPI
[10] = Antidote + Biocide No. 1 in furrow, Herbicide No. 13 0.0011 Kg/Ha PPI
[11] = Antidote + Biocide No. 1 in furrow, Herbicide No. 13 0.0022 Kg/Ha PPI
[12] = Antidote + Biocide No. 1 in furrow, Herbicide No. 14 0.07 Kg/Ha PPI
[13] = Antidote + Biocide No. 1 in furrow, Herbicide No. 16 0.07 Kg/Ha PPI, 13 days
[14] = Antidote + Biocide No. 1 in furrow, Herbicide No. 17 0.14 Kg/Ha PPI, 13 days
[15] = Antidote + Biocide No. 1 in furrow, Herbicide No. 18 0.04 Kg/Ha PPI, 13 days
[16] = Antidote + Biocide No. 1 in furrow, Herbicide No. 20 1.12 Kg/Ha PPI, 13 days
[17] = Antidote + Biocide No. 1 in furrow, Herbicide No. 22 0.28 Kg/Ha PPI, 13 days
[18] = Antidote + Biocide No. 1 in furrow, Herbicide No. 24 0.14 Kg/Ha PPI, 13 days
[19] = Antidote + Biocide No. 1 in furrow, Herbicide No. 25 0.14 Kg/Ha PPI, 13 days
[20] = Antidote + Biocide No. 1 in furrow, Herbicide No. 26 2.24 Kg/Ha PPI, 13 days
[21] = Antidote + Biocide No. 1 in furrow, Herbicide No. 28 0.04 Kg/Ha PPI, 13 days
[22] = ACCENT POE + OP insecticides PPI, Tables 11-14
[23] = Antidote 4.48 + Biocide No. 1 8.96 Kg/Ha PPI, Herb. No. 8 0.07, 5 DAP, before herbicide application
[24] = Antidote 4.48 + Biocide No. 1 8.96 Kg/Ha PPI, Herb. No. 8 0.07 POE, 13 DAP
[25] = Antidote 4.48 + Biocide No. 1 8.96 Kg/Ha PPI, Herbicide No. 7 0.28 POE, 13 days after planting
[26] = Herb. […], 5 DAP, before herbicide application
[27] = Table 14: Herbicide No. 7 (ACCENT) 0.84 Kg/Ha POE + Biocide No. 2 8.96 Kg/Ha PPI + antidote 4.48 Kg/Ha PPI, 13 days after planting, 8 days after herbicide
[28] = […], 13 days after planting, 8 days after herbicide
[29] = […], observed 10 days after herbicide application

| SMILES | safening activity (Corn [1]; [6]) | % Inhibition Corn (Corn [2]; [7]) [%] | % Inhibition Corn (Corn [2]; [8]) [%] | % Inhibition Corn (Corn [2]; [9]) [%] | % Inhibition Corn (Corn [2]; [10]) [%] | % Inhibition Corn (Corn [2]; [11]) [%] | % Inhibition Corn (Corn [2]; [12]) [%] | % Inhibition Corn (Corn [2]; [13]) [%] | % Inhibition Corn (Corn [2]; [14]) [%] | % Inhibition Corn (Corn [2]; [15]) [%] | % Inhibition Corn (Corn [2]; [16]) [%] | % Inhibition Corn (Corn [2]; [17]) [%] | % Inhibition Corn (Corn [2]; [18]) [%] | % Inhibition Corn (Corn [2]; [19]) [%] | % Inhibition Corn (Corn [2]; [20]) [%] | % Inhibition Corn (Corn [2]; [21]) [%] | safener activity (Corn [3]; [22]) | % Inhibition 5 DAP Corn (Corn [3]; [23]) [%] | % Inhibition 13 DAP Corn (Corn [3]; [24]) [%] | % Inhibition Corn (Corn [3]; [25]) [%] | other results |
| --- | --- | --- | --- | --- | --- | --- | --- | --- | --- | --- | --- | --- | --- | --- | --- | --- | --- | --- | --- | --- | --- |
| O=C(OCc1ccccc1)c1sc(Cl)nc1C(F)(F)F [Antidote No. 7, 5-Thiazolecarboxylic acid, 2-chloro-4-(trifluoromethyl)-, (phenylmethyl) ester] |  |  |  |  |  |  |  |  |  |  |  |  |  |  |  |  |  |  |  |  | safening (Corn [1]; [4]): moderate to high degrees of safening; safening (Corn [2]): less effective than the other safeners; antidote activity (Corn [3]): slightly more active than other thiazoles tested |
| CC1(C)OC(c2ccco2)CN1C(=O)C(Cl)Cl (stereo not drawn) [Antidote No. 1, Oxazolidine, 3-(dichloroacetyl)-2,2-dimethyl-5-(2-furanyl)-] |  |  |  |  |  |  |  |  |  |  |  |  |  |  |  |  |  |  |  |  | safening (Corn [1]; DIAZINON + Herbicides 1, 21, 18, Example 53): Effective safening; safener efficacy, comparison (Corn [2]; COUNTER 15G + PURSUIT/co-herbicides, Example 61): more effective than flurazole or MON-4660; safening (Corn [2]): good activity; antidote activity (Corn [3]): most active antidote; relieving corn injury, comparison (Corn [3]; Example 29, COUNTER/PURSUIT negative synergy): more active than Antidote No. 28 |
| COC(=O)COC(c1ccccc1)c1ccccc1 [compound 12] | Safening activity was observed | 10 | 10 | 10 | 35 | 55 | 0 | 40 | 10 | 5 | 25 | 0 | 30 | 0 | 5 | 10 | most active | 20 | 15 | 20 | safening activity (Corn [1]; [5]): Safening activity was observed; % Inhibition Corn (Corn [1]; […], PPI, 14 days after PPI (Table 34)): 25%; reducing corn injury, comparison (Corn [1]; in vivo): superior to No. 28; % Inhibition Corn (Corn [2]; Herbicide No. 12 0.0044 Kg/Ha PPI + Biocide No. 1 in furrow, no antidote): 70%; % Inhibition Corn (Corn [2]; Herbicide No. 12 0.0044 Kg/Ha PPI alone, average of two reps): 40%; % Inhibition 5 DAP Corn (Corn [3]; [26]): 0%; % Inhibition Corn (Corn [3]; [27]): 0%; % Inhibition Corn (Corn [3]; [28]): 0%; % Inhibition Corn (Corn [3]; […], observed 8 days later (Table 32)): 0%; % Inhibition Corn (Corn [3]; […], observed 8 days later (Table 33)): 40%; % Inhibition Corn (Corn [3]; [29]): 60%; % Inhibition 5 DAP Corn (Corn [3]; in vivo): 20%; % Inhibition 13 DAP Corn (Corn [3]; in vivo): 20%; activity in reducing corn injury (Corn [3]): most active |
| CC1(C)OC(c2ccco2)CN1C(=O)C(Cl)Cl (stereo not drawn) [compound 1] | Safening activity was observed | 15 | 15 | 20 | 40 | 70 | 10 | 45 | 45 | 10 | 25 | 5 | 25 | 15 | 20 | 20 | most active | 10 | 25 | 20 | % Inhibition Corn (Corn [1]; […], PPI, 13 days after PPI (Table 31)): 25%; reducing corn injury, comparison (Corn [1]; in vivo): superior to No. 28; % Inhibition 5 DAP Corn (Corn [3]; [26]): 0%; % Inhibition Corn (Corn [3]; [27]): 5%; % Inhibition Corn (Corn [3]; [28]): 5%; % Inhibition Corn (Corn [3]; […], observed 9 days later (Table 29)): 10%; % Inhibition Corn (Corn [3]; […], observed 9 days later (Table 30)): 35%; % Inhibition Corn (Corn [3]; [29]): 55%; % Inhibition 5 DAP Corn (Corn [3]; in vivo): 30%; % Inhibition 13 DAP Corn (Corn [3]; in vivo): 20%; activity in reducing corn injury (Corn [3]): most active |
| N#CCOc1ccc(Cl)c2cccnc12 [compound 33] | Safening activity was observed | 20 | 20 | 20 | 40 | 90 | 10 | 35 | 20 | 5 | 50 | 5 | 40 | 20 | 10 | 30 | most active | 25 | 20 | 15 | safening activity (Corn [1]; [5]): Safening activity was observed; safening (Corn [1]; [4]): moderate to high degrees of safening; % Inhibition 5 DAP Corn (Corn [3]; [26]): 0%; safener activity (Corn [3]; PURSUIT POE + insecticides PPI, Tables 15-18): most active; % Inhibition Corn (Corn [3]; [27]): 0%; % Inhibition Corn (Corn [3]; [28]): 10%; % Inhibition Corn (Corn [3]; [29]): 40%; % Inhibition 5 DAP Corn (Corn [3]; in vivo): 30%; % Inhibition 13 DAP Corn (Corn [3]; in vivo): 20%; effect on corn before application of the herbicide (Corn [3]; in vivo): Some injury; activity in reducing corn injury (Corn [3]): most active |
| COC(=O)c1c(Cl)nn(C)c1S(=O)(=O)NC(=O)Nc1nc(OC)cc(OC)n1 [Herbicide No. 1, N-[(4,6-dimethoxypyrimidin-2-yl)aminocarbonyl]-3-chloro-4-methoxycarbonyl-5-sulfonamide, reference compound] |  |  |  |  |  |  |  |  |  |  |  |  |  |  |  |  |  |  |  |  | % Inhibition Corn (Corn [1]; Herb. […], PPI, 13 days after planting): 70%; % Inhibition Corn (Corn [1]; Herbicide No. 1 0.0175 Kg/Ha PPI alone, Table 19): 5%; % Inhibition Corn (Corn [1]; Herbicide No. 1 0.0175 Kg/Ha PPI alone, Table 20): 0%; % Inhibition Corn (Corn [1]; Herbicide No. 1 0.0175 Kg/Ha PPI alone, Table 21): 0%; % Inhibition Corn (Corn [1]; Herbicide No. 1 0.0175 Kg/Ha PPI alone, Table 22): 0%; corn injury (Corn [1]; MON-12000 0.14 kg/ha with the OP insecticides at 8.96 kg/ha): 45-50%; corn injury (Corn [1]; MON-12000 0.14 kg/ha without insecticide, Examples 20-23): 0-5%; % Inhibition Corn (Corn [1]; Table 53, Herbicide No. 1, rate printed as '-', where applied Biocide No. 7 8.96 kg/Ha and antidote 4.48 Kg/Ha, all PPI, observed 13 days after treatment): 5%; % Inhibition Corn (Corn [1]; Table 54, Herbicide No. 1, rate printed as '-', where applied Biocide No. 6 8.96 kg/Ha and antidote 4.48 Kg/Ha, all PPI, observed 14 days after PPI initiation): 5%; % Inhibition Corn (Corn [1]; in vivo): 50% and 45% |
